This is an account of results in US20090246208A1, “METHODS FOR PREVENTING AND TREATING CANCER METASTASIS AND BONE LOSS ASSOCIATED WITH CANCER METASTASIS” (Novartis AG, priority 2006, published 2009).

Assay [1] has as its system osteolytic damage caused by tumor growth at the bony site. Kind of assay: Zometa dose-response study, osteolysis caused by tumor growth at the bony site (x-ray osteolysis score, FIG. 14). It is filed as in vivo, mice. From the text:
This Example establishes the dose-dependent, anti-resorptive effects of Zometa (zoledronate) in an animal model (FIG. 14). […] Osteolysis score based on x-ray image in last-day of study (FIG. 14):
(§1) 1=Equivocal or minimal lesion with normal cortex architecture;
(§2) 2=Definite lytic lesion with minimal cortex/architecture disruption
(§3) 3=Large lesion(s) with cortex/Architecture disruption
(§4) 4=Gross destruction with no preserved architecture

The test system of assay [2] is MDA-MB-231Luc cells. Kind of assay: Combination study: intratibial MDA-MB-231Luc cells in Nu/Nu mice, Faxitron x-ray osteolysis scoring (FIGS. 15-17). Format: in vivo. How it is done: Two weeks after intratibial inoculation of 6×10^5 MDA-MB-231Luc cells, Nu/Nu mice were treated with 5A1/5B4 (10 mg/kg once weekly), Zometa (0.03 mg/kg twice weekly) or both antibody and bisphosphonate. Bone lesions were monitored weekly by Faxitron analysis (x-ray technology), and at the end of the study, all animals were subjected to a final x-ray, and the images collected and distributed for scoring of the severity of lesions.
Mean osteolysis scores were calculated from 1) an average of scores from 3 separate volunteer scorers and 2) a group average (originally 10 animals/group).
Osteolysis score based on x-ray image in last day of study:
as §1, §2, §3, §4

Assay [3] deals with osteoclasts differentiated from human bone marrow CD34+ cells. Kind of assay: Differentiated osteoclast activity, OsteoLyse Assay Kit (Human Collagen) (FIGS. 18, 19). The conditions noted are these: added on day 15, supernatant sampled on day 17. Format: cell-based.
Procedure: The human bone marrow CD34+ cells (Biowhittaker catalog number 2M-101 A, 3×10^5 cells/vial) were induced to differentiate into osteoclasts under the experimental conditions described here. On Day 1, CD34+ cells were thawed from one frozen vial into 10 ml of media (Alpha MEM with 10% FCS, 1×Pen Strep and 1×fungizone) The cells were washed once and re-suspended in 2 ml of media and plate into onto the OsteoLyse plate (OsteoLyse™ Assay Kit (Human Collagen), Cambrex) at 100 ul per well. On day 2, without removing the original media, add to each well 50 ul of 4×CSF-1 to 30 ng/ml final concentration and 50 ul of 4×RANKL (sRANKL, Chemicon catalog #GF091, 10 ug/package) to final concentration of 100 ng/ml. On day 7, add to each well 50 ul of 5×RANKL to final concentration of 100 ng/ml. On day 15, antibodies (either Chir-RX1 or control antibody) or Zometa were added at the indicated concentrations. On day 17, 10 ul of supernatant of the cell culture was sampled and mixed with 200 μl of Fluorophore Releasing Reagent in each well of the black 96-well assay plate (included in the OsteoLyse Assay Kit).
The subject of assay [4] is M-CSF biological activity. The following applies: cited from earlier work.
Assay [5] deals with MCSF-R. The conditions noted are these: cited from earlier work.

Regarding `O=P(O)(O)C(O)(Cn1ccnc1)P(=O)(O)O` [Zometa, zoledronate], the “dose response of anti-resorptive effect” value in assay [1] (mice treated with increasing concentrations of Zometa) is “a dose response effect was observed”. For the same molecule, the “osteolytic damage caused by tumor growth at the bony site (osteolysis score based on x-ray image)” value in assay [1] (≧0.03 mg/kg Zometa, last day of study, FIG. 14) was “inhibited the osteolytic damage”. Besides, the “osteolytic damage caused by tumor growth at the bony site (mean osteolysis scores, FIG. 16)” value in assay [2] (0.03 mg/kg Zometa, 10 mg/kg anti-MCSF antibody, combination regimen, last day of study) is “inhibited the osteolytic damage”. Further, the “treating osteolysis (single agents)” value in assay [2] (antibody 10 mg/kg once weekly, Zometa 0.03 mg/kg twice weekly, treatment from two weeks after inoculation) is recorded as “effective in treating osteolysis”. Besides, the “severity of lesions in representative faxitron images (FIG. 17)” value in assay [2] (compared to untreated animals) is “relatively minor lesions”. Moreover, the differentiated osteoclast activity result in assay [3] was “inhibits differentiated osteoclast activity in a dose-dependent manner”.

B1: M-CSF (Q20A, V78K): double mutant of M-CSF testing solvent accessible residues in the central portion of helices A and C (protein, UniProt P09603 33-554, looked up, variant Q20A V78K)
Macrophage colony-stimulating …: EEVSEYCSHMIGSGHLQSLARLIDSQMETSCQITFEFVDQEQLKDPVCYLKKAFLLVQDIMEDTMRFRDNTPNAIAIKQLQELSLRLKSCFTKDYEEHDKACVRTFYETPLQLLEKVKNVFNETKNLLDKDWNIFSKNCNNSFAECSSQDVVTKPDCNCLYPKAIPSSDPASVSPHQPLAPSMAPVAGLTWEDSEGTEGSSLLPGEQPLHTVDPGSAKQRPPRSTCQSFEPPETPVVKDSTIGGSPQPRPSVGAFNPGMEDILDSAMGTNWVPEEASGEASEIPVPQGTELSPSRPGGGSMQTEPARPSNFLSASSPLPASAKGQQPADVTGTALPRVGPVRPTGQDWNHTPQKTDHPSALLRDPPEPGSPRISSLRPQGLSNPSTLSAQPQLSRSHSSGSVLPLGELEGRRSTRDRRSPAEPEGGPASEGAARPLPRFNSVPLTDTGHERQSEGSFSPQLQESVFHLLVPSVILVLLAVGGLLFYRWRRRSHQEPQRADSPLEQPEGSPLTQDDRQVELPV
As to B1, the “biological activity, lower than native M-CSF” value in assay [4] is reported as 8-10 fold. Moreover, the receptor-binding activity entry in assay [5] was “correspondingly lower”.
